No end group written: not given here.
System: popliteal lymph node cells from HC gp-39(263–275)-immunized huCD4, HLA-DR4 transgenic mice
Assay: Antigen-specific cytokine production of popliteal lymph node cells from WT peptide-immunized mice
Assay type: cell-based, mouse
Settings: for IFNγ concentration / MIP1α concentration / RANTES concentration: 96 h supernatant, Luminex
Procedure: Mice, obtained from L Fugger (Oxford, UK), were immunized in the hind footpads with 2 × 50 μg of purified recombinant HC gp-39, with 2 × 100 μg of the WT peptide or with 2 × 100 μg of the APL (F265(Dip); compound 28; Figure 1) mixed in IFA. Seven days later, popliteal lymph node cell suspensions (1 to 2 × 10^5 cells/well) were stimulated in vitro with HC gp-39 (50, 10 or 2 μg/ml), HC gp-39(263–275) or APL (10, 2 and 0.4 μg/ml). At 96 h, 50 μl of culture medium was harvested for analysis of antigen-specific cytokine production using Luminex technology (mouse cytokine 18 Plex Panel, catalogue no. 171-F11181, Biorad, Bio-Rad Laboratories, Hercules, CA, USA). In addition, cultures were labelled with tritiated thymidine (for 18 h) and antigen-specific proliferation was determined. We state that all animal experimentation received ethics approval and animals were treated according to the recognized guidelines.

[1] = Figure 4a, WT peptide-immunized HLA-DR4trg mice

RSFTLASSETGVG [Compound 1, HC gp-39(263–275)]
Ex vivo recall IFNγ production in words [1]: significant levels | Ex vivo recall Mip1α production in words [1]: significant levels | Ex vivo recall RANTES production in words [1]: significant levels | IFNγ concentration (peptide 0.4 μg/ml): <5 pg/mL | MIP1α concentration (peptide 0.4 μg/ml): 25 pg/mL | RANTES concentration (peptide 0.4 μg/ml): 6 pg/mL | IFNγ concentration (peptide 2 μg/ml): 6 pg/mL | MIP1α concentration (peptide 2 μg/ml): 128 pg/mL | RANTES concentration (peptide 2 μg/ml): 13 pg/mL | IFNγ concentration (peptide 10 μg/ml): 16 pg/mL | MIP1α concentration (peptide 10 μg/ml): 252 pg/mL | RANTES concentration (peptide 10 μg/ml): 23 pg/mL
